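Grown in 96-well plates, cells were treated for 48 hours with each compound at five concentrations. Insufficient inhibition: endpoint recorded as highest concentration tested. Abbreviation: GI50, concentration required for 50% inhibition of growth.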 Activity calls are given as the source filed them. No stated cut-off is given here; in the data, active = GI50 up to about 1.1 µM and inactive = higher.
Legend:
Experiment in all cases: growth of human tumour cells (NCI), 48 h
[1] = test system: SN12C
[2] = test system: A549
[3] = test system: K562
[4] = test system: HCC 2998
[5] = test system: OVCAR-3
[6] = test system: LOX IMVI
[7] = test system: UACC-62
[8] = test system: SF-539
[9] = test system: SNB-19
[10] = test system: HL-60
[11] = test system: SNB-75
[12] = test system: MOLT-4
[13] = test system: RPMI-8226
[14] = test system: SF-268
[15] = test system: M14
[16] = test system: U-251
[17] = test system: NCI-H23
[18] = test system: UO-31
[19] = test system: SR

SMILES | GI50 [1] | GI50 [2] | GI50 [3] | GI50 [4] | GI50 [5] | GI50 [6] | GI50 [7] | GI50 [8] | GI50 [9] | GI50 [10] | GI50 [11] | GI50 [12] | GI50 [13] | GI50 [14] | GI50 [15] | GI50 [16] | GI50 [17] | GI50 [18] | GI50 [19]
O=C1c2ccccc2C(=O)c2c(NCC3CO3)cccc21 (stereo not drawn) | 7.66 µM (inactive) | 57 µM (inactive) | 6.62 µM (inactive) | > 100 µM (inactive) | 15.4 µM (inactive) | 1.38 µM (inactive) | 16 µM (inactive) | > 45.3 µM (inactive) | > 57.3 µM (inactive) | 5.27 µM (inactive) | > 100 µM (inactive) | 3.77 µM (inactive) | 33.2 µM (inactive) | 7.5 µM (inactive) | 11.3 µM (inactive) | 14 µM (inactive) | 9.44 µM (inactive) | 8.05 µM (inactive) | –
O=c1[nH]c(=O)n(C2CC(O)C(CO)O2)cc1/C=C/Br (stereo not drawn) | > 100 µM (inactive) | > 100 µM (inactive) | > 100 µM (inactive) | – | – | > 100 µM (inactive) | > 100 µM (inactive) | > 100 µM (inactive) | > 100 µM (inactive) | > 100 µM (inactive) | – | > 100 µM (inactive) | – | > 100 µM (inactive) | > 100 µM (inactive) | > 100 µM (inactive) | > 100 µM (inactive) | > 100 µM (inactive) | > 100 µM (inactive)
CCN(CC)CCCC(C)Nc1c(Sc2cnc3cc(Cl)ccc3c2NC(C)CCCN(CC)CC)cnc2cc(Cl)ccc12 (stereo not drawn) | 1.88 µM (inactive) | 1.68 µM (inactive) | 1.55 µM (inactive) | 0.269 µM (active) | 1.9 µM (inactive) | 1.78 µM (inactive) | 1.74 µM (inactive) | – | – | 1.82 µM (inactive) | 1.51 µM (inactive) | 2.37 µM (inactive) | 1.91 µM (inactive) | 2.02 µM (inactive) | 1.81 µM (inactive) | 1.63 µM (inactive) | 3.3 µM (inactive) | 21.1 µM (inactive) | –
CC(C)(c1cn(Cc2ccccc2)c2ccccc12)c1cn(Cc2ccccc2)c2ccccc12 | 1.7 µM (inactive) | > 100 µM (inactive) | > 100 µM (inactive) | – | > 100 µM (inactive) | > 100 µM (inactive) | > 100 µM (inactive) | > 100 µM (inactive) | – | > 100 µM (inactive) | 17.3 µM (inactive) | > 100 µM (inactive) | > 100 µM (inactive) | > 100 µM (inactive) | > 100 µM (inactive) | > 100 µM (inactive) | > 100 µM (inactive) | – | > 100 µM (inactive)
CSc1c(C)c(C)nn1-c1ccccc1 | > 100 µM (inactive) | > 100 µM (inactive) | > 100 µM (inactive) | > 100 µM (inactive) | – | > 100 µM (inactive) | > 100 µM (inactive) | > 100 µM (inactive) | > 100 µM (inactive) | 81.1 µM (inactive) | 58.2 µM (inactive) | > 100 µM (inactive) | > 100 µM (inactive) | > 100 µM (inactive) | > 100 µM (inactive) | > 100 µM (inactive) | > 100 µM (inactive) | > 100 µM (inactive) | –
CN(C)c1ccc(/C=c2/sc3nc(=O)c(-c4ccccc4NC(=O)C(F)(F)F)nn3c2=O)cc1 | > 100 µM (inactive) | > 100 µM (inactive) | > 100 µM (inactive) | > 100 µM (inactive) | > 100 µM (inactive) | > 100 µM (inactive) | > 100 µM (inactive) | > 100 µM (inactive) | > 100 µM (inactive) | – | > 100 µM (inactive) | > 100 µM (inactive) | – | > 100 µM (inactive) | > 100 µM (inactive) | 53.3 µM (inactive) | 67.6 µM (inactive) | 50 µM (inactive) | 93.8 µM (inactive)
CC(=O)OC1(C#N)CC2OC1C1C2N1C(=O)OC(C)(C)C (stereo not drawn) | > 100 µM (inactive) | > 100 µM (inactive) | > 100 µM (inactive) | > 100 µM (inactive) | – | > 100 µM (inactive) | > 100 µM (inactive) | > 100 µM (inactive) | > 100 µM (inactive) | > 100 µM (inactive) | > 100 µM (inactive) | > 100 µM (inactive) | > 100 µM (inactive) | > 100 µM (inactive) | > 100 µM (inactive) | > 100 µM (inactive) | > 100 µM (inactive) | > 100 µM (inactive) | –
CNCCCCN(C)/[N+]([O-])=N\O | > 100 µM (inactive) | > 100 µM (inactive) | > 100 µM (inactive) | > 100 µM (inactive) | > 100 µM (inactive) | – | > 100 µM (inactive) | > 100 µM (inactive) | > 100 µM (inactive) | > 100 µM (inactive) | 49.2 µM (inactive) | > 100 µM (inactive) | > 100 µM (inactive) | > 100 µM (inactive) | > 100 µM (inactive) | > 100 µM (inactive) | > 100 µM (inactive) | > 100 µM (inactive) | –
O=c1cc2ccccc2nn1Cc1cccc(Cl)c1 | 97.9 µM (inactive) | 49.8 µM (inactive) | 32.4 µM (inactive) | > 100 µM (inactive) | 62.2 µM (inactive) | > 100 µM (inactive) | > 100 µM (inactive) | > 100 µM (inactive) | > 100 µM (inactive) | – | 32.7 µM (inactive) | – | 30.7 µM (inactive) | 90.2 µM (inactive) | > 100 µM (inactive) | > 100 µM (inactive) | 57.3 µM (inactive) | 37.5 µM (inactive) | –
COc1ccc(-c2cc(=O)c3ccc(O)cc3o2)c(OC)c1OC | 82.8 µM (inactive) | 55.7 µM (inactive) | 29.6 µM (inactive) | 48.8 µM (inactive) | 41.9 µM (inactive) | 60.7 µM (inactive) | 36.2 µM (inactive) | 46 µM (inactive) | 65 µM (inactive) | 31.6 µM (inactive) | 28.7 µM (inactive) | – | 18.9 µM (inactive) | 41.3 µM (inactive) | 72.9 µM (inactive) | – | 43.4 µM (inactive) | – | –
CC(C)(C)OC1=C(OC(C)(C)C)C(O)(c2ccccc2)C1=O (stereo not drawn) | > 100 µM (inactive) | > 100 µM (inactive) | > 100 µM (inactive) | > 100 µM (inactive) | > 100 µM (inactive) | > 100 µM (inactive) | > 100 µM (inactive) | > 100 µM (inactive) | > 100 µM (inactive) | > 100 µM (inactive) | > 100 µM (inactive) | > 100 µM (inactive) | > 100 µM (inactive) | > 100 µM (inactive) | > 100 µM (inactive) | > 100 µM (inactive) | > 100 µM (inactive) | > 100 µM (inactive) | –
COc1ccc2c3c1C(=O)CCCC3CO2 (stereo not drawn) | > 100 µM (inactive) | > 100 µM (inactive) | > 100 µM (inactive) | > 100 µM (inactive) | > 100 µM (inactive) | > 100 µM (inactive) | > 100 µM (inactive) | > 100 µM (inactive) | > 100 µM (inactive) | > 100 µM (inactive) | > 100 µM (inactive) | > 100 µM (inactive) | > 100 µM (inactive) | > 100 µM (inactive) | > 100 µM (inactive) | > 100 µM (inactive) | > 100 µM (inactive) | > 100 µM (inactive) | –
O=C1CCC2(c3ccc(Cl)cc3)Nc3ncccc3N12 (stereo not drawn) | > 100 µM (inactive) | > 100 µM (inactive) | > 100 µM (inactive) | > 100 µM (inactive) | > 100 µM (inactive) | > 100 µM (inactive) | > 100 µM (inactive) | > 100 µM (inactive) | – | > 100 µM (inactive) | 79.8 µM (inactive) | > 100 µM (inactive) | > 100 µM (inactive) | > 100 µM (inactive) | > 100 µM (inactive) | > 100 µM (inactive) | > 100 µM (inactive) | > 100 µM (inactive) | –
COc1nc(NC2OC(COC(C)=O)C(OC(C)=O)C(OC(C)=O)C2OC(C)=O)c(/N=C(\C)C(C)=O)c(=O)n1C (stereo not drawn) | > 100 µM (inactive) | > 100 µM (inactive) | > 100 µM (inactive) | > 100 µM (inactive) | > 100 µM (inactive) | > 100 µM (inactive) | > 100 µM (inactive) | > 100 µM (inactive) | > 100 µM (inactive) | > 100 µM (inactive) | > 100 µM (inactive) | > 100 µM (inactive) | > 100 µM (inactive) | – | > 100 µM (inactive) | > 100 µM (inactive) | > 100 µM (inactive) | > 100 µM (inactive) | –
C=CCCCCCCC#CCCCCCCCCCC[C@@H]1C(=O)O[C@H](C)[C@@H]1O.CCCCCCCCC#CCCCCCCCCCC[C@@H]1C(=O)O[C@H](C)[C@@H]1O | 15.3 µM (inactive) | 14.1 µM (inactive) | 6.19 µM (inactive) | 23.6 µM (inactive) | 20.2 µM (inactive) | 12.9 µM (inactive) | – | 20.8 µM (inactive) | 15.9 µM (inactive) | – | 16.7 µM (inactive) | 12.6 µM (inactive) | 16.5 µM (inactive) | 13.9 µM (inactive) | 17.3 µM (inactive) | 18.7 µM (inactive) | 8.39 µM (inactive) | 15.6 µM (inactive) | –
O=C(Nc1c(O)[nH]c(=S)[nH]c1=O)c1ccccn1 | > 100 µM (inactive) | > 100 µM (inactive) | > 100 µM (inactive) | – | > 100 µM (inactive) | > 100 µM (inactive) | > 100 µM (inactive) | > 100 µM (inactive) | > 100 µM (inactive) | > 100 µM (inactive) | > 100 µM (inactive) | > 100 µM (inactive) | > 100 µM (inactive) | > 100 µM (inactive) | > 100 µM (inactive) | > 100 µM (inactive) | > 100 µM (inactive) | > 100 µM (inactive) | > 100 µM (inactive)
